In brackets after ≈: the same amount, converted by molar mass.
Assays:
Assay type in all cases: functional
[1] = system: Mycobacterium tuberculosis; assay: Antitubercular activity against multidrug resistant Mycobacterium tuberculosis RF21212 incubated for 5 days by microtiter plate method; conditions: time 5 day; for MIC: Mycobacterium tuberculosis, RF21212, 120 h
[2] = system: Mycobacterium tuberculosis; assay: Antitubercular activity against multidrug resistant Mycobacterium tuberculosis BLG3381 incubated for 5 days by microtiter plate method; conditions: BLG3381, 120 h, time 5 day
[3] = system: Mycobacterium tuberculosis; assay: Antitubercular activity against multidrug resistant Mycobacterium tuberculosis RF21250 incubated for 5 days by microtiter plate method; conditions: time 5 day; for MIC: Mycobacterium tuberculosis, RF21250, 120 h
[4] = system: Mycobacterium tuberculosis; assay: Potentiation of rifampicin antitubercular activity against multidrug resistant Mycobacterium tuberculosis BLG3381 assessed as decrease in rifampicin MIC99.9 at 3.125 ug/ml by broth dilution method (reference value: 64 ug/ml); conditions: dose 3.125 µg/ml
[5] = system: Mycobacterium tuberculosis; assay: Potentiation of isoniazid antitubercular activity against multidrug resistant Mycobacterium tuberculosis RF21212 assessed as decrease in isoniazid MIC99.9 at 1.56 ug/ml by broth dilution method (reference value: 12.8 ug/ml); conditions: dose 1.56 µg/ml
[6] = system: Mycobacterium tuberculosis; assay: Potentiation of rifampicin antitubercular activity against multidrug resistant Mycobacterium tuberculosis RF21250 assessed as decrease in rifampicin MIC99.9 at 0.78 ug/ml by broth dilution method (reference value: 128 ug/ml); conditions: dose 0.78 µg/ml
[7] = system: Mycobacterium tuberculosis; assay: Potentiation of isoniazid antitubercular activity against multidrug resistant Mycobacterium tuberculosis BLG3381 assessed as decrease in isoniazid MIC99.9 at 3.125 ug/ml by broth dilution method (reference value: 12.8 ug/ml); conditions: dose 3.125 µg/ml
[8] = system: Mycobacterium tuberculosis; assay: Potentiation of rifampicin antitubercular activity against multidrug resistant Mycobacterium tuberculosis RF21212 assessed as decrease in rifampicin MIC99.9 at 0.78 ug/ml by broth dilution method (reference value: 128 ug/ml); conditions: dose 0.78 µg/ml
[9] = system: Mycobacterium tuberculosis; assay: Potentiation of isoniazid antitubercular activity against multidrug resistant Mycobacterium tuberculosis RF21250 assessed as decrease in isoniazid MIC99.9 at 0.78 ug/ml by broth dilution method (reference value: 3.2 ug/ml); conditions: dose 0.78 µg/ml
[10] = system: Mycobacterium tuberculosis; assay: Potentiation of rifampicin antitubercular activity against multidrug resistant Mycobacterium tuberculosis RF21212 assessed as decrease in rifampicin MIC99.9 at 1.56 ug/ml by broth dilution method (reference value: 128 ug/ml); conditions: dose 1.56 µg/ml
[11] = system: Mycobacterium tuberculosis; assay: Potentiation of isoniazid antitubercular activity against multidrug resistant Mycobacterium tuberculosis RF21212 assessed as decrease in isoniazid MIC99.9 at 3.125 ug/ml by broth dilution method (reference value: 12.8 ug/ml); conditions: dose 3.125 µg/ml
[12] = system: Mycobacterium tuberculosis; assay: Potentiation of rifampicin antitubercular activity against multidrug resistant Mycobacterium tuberculosis RF21250 assessed as decrease in rifampicin MIC99.9 at 3.125 ug/ml by broth dilution method (reference value: 128 ug/ml); conditions: dose 3.125 µg/ml
[13] = system: Mycobacterium tuberculosis; assay: Potentiation of rifampicin antitubercular activity against multidrug resistant Mycobacterium tuberculosis RF21212 assessed as decrease in rifampicin MIC99.9 at 3.125 ug/ml by broth dilution method (reference value: 128 ug/ml); conditions: dose 3.125 µg/ml
[14] = system: Mycobacterium tuberculosis; assay: Potentiation of isoniazid antitubercular activity against multidrug resistant Mycobacterium tuberculosis RF21250 assessed as decrease in isoniazid MIC99.9 at 3.125 ug/ml by broth dilution method (reference value: 3.2 ug/ml); conditions: dose 3.125 µg/ml
[15] = system: Mycobacterium tuberculosis; assay: Potentiation of isoniazid antitubercular activity against multidrug resistant Mycobacterium tuberculosis BLG3381 assessed as decrease in isoniazid MIC99.9 at 6.25 ug/ml by broth dilution method (reference value: 12.8 ug/ml); conditions: dose 6.25 µg/ml
[16] = system: Mycobacterium tuberculosis; assay: Potentiation of rifampicin antitubercular activity against multidrug resistant Mycobacterium tuberculosis BLG3381 assessed as decrease in rifampicin MIC99.9 at 6.25 ug/ml by broth dilution method (reference value: 64 ug/ml); conditions: dose 6.25 µg/ml
[17] = system: Mycobacterium tuberculosis; assay: Potentiation of isoniazid antitubercular activity against multidrug resistant Mycobacterium tuberculosis RF21250 assessed as decrease in isoniazid MIC99.9 at 0.39 ug/ml by broth dilution method (reference value: 3.2 ug/ml); conditions: dose 0.39 µg/ml
[18] = system: Mycobacterium tuberculosis; assay: Potentiation of rifampicin antitubercular activity against multidrug resistant Mycobacterium tuberculosis BLG3381 assessed as decrease in rifampicin MIC99.9 at 0.39 ug/ml by broth dilution method (reference value: 64 ug/ml); conditions: dose 0.39 µg/ml
[19] = system: Mycobacterium tuberculosis; assay: Potentiation of isoniazid antitubercular activity against multidrug resistant Mycobacterium tuberculosis BLG3381 assessed as decrease in isoniazid MIC99.9 at 0.39 ug/ml by broth dilution method (reference value: 12.8 ug/ml); conditions: dose 0.39 µg/ml
[20] = system: Mycobacterium tuberculosis; assay: Potentiation of rifampicin antitubercular activity against multidrug resistant Mycobacterium tuberculosis RF21250 assessed as decrease in rifampicin MIC99.9 at 0.39 ug/ml by broth dilution method (reference value: 128 ug/ml); conditions: dose 0.39 µg/ml
[21] = system: Mycobacterium tuberculosis; assay: Potentiation of isoniazid antitubercular activity against multidrug resistant Mycobacterium tuberculosis RF21250 assessed as decrease in isoniazid MIC99.9 at 1.56 ug/ml by broth dilution method (reference value: 3.2 ug/ml); conditions: dose 1.56 µg/ml
[22] = system: Mycobacterium tuberculosis; assay: Potentiation of isoniazid antitubercular activity against multidrug resistant Mycobacterium tuberculosis RF21212 assessed as decrease in isoniazid MIC99.9 at 0.78 ug/ml by broth dilution method (reference value: 12.8 ug/ml); conditions: dose 0.78 µg/ml

SMILES: NNC(=O)c1ccncc1 [ISONIAZID]
- MIC [1]: 93.9 µM (≈ 12.9 µg/mL)
- MIC [2]: 93.9 µM
- MIC [3]: 23.3 µM (≈ 3.2 µg/mL)

SMILES: CCOc1cc(C2C(Cl)C(=O)N2C2=C(Cl)C(=O)c3ccccc3C2=O)ccc1O (stereo not given)
- MIC99.9 [4]: 0.5 mg/L
- MIC99.9 [5]: 0.4 mg/L
- MIC99.9 [6]: 1 mg/L
- MIC99.9 [7]: 0.05 mg/L
- MIC99.9 [8]: 0.5 mg/L
- MIC99.9 [9]: 0.2 mg/L
- MIC [1]: 7.23 µM (≈ 3.13 µg/mL)
- MIC [2]: 28.9 µM
- MIC99.9 [3]: 3.125 mg/L (≈ 7.23 µM)

SMILES: O=C1C(Cl)=C(N2C(=O)C(Cl)C2c2ccc(Cl)cc2)C(=O)c2ccccc21 (stereo not given)
- MIC99.9 [4]: 0.1 mg/L
- MIC99.9 [5]: 0.1 mg/L
- MIC99.9 [6]: 4 mg/L
- MIC99.9 [7]: 1.6 mg/L
- MIC99.9 [9]: 0.8 mg/L
- MIC99.9 [1]: 6.25 mg/L (≈ 15.4 µM)
- MIC99.9 [10]: 0.031 mg/L
- MIC [2]: 30.8 µM
- MIC99.9 [3]: 6.25 mg/L (≈ 15.4 µM)

SMILES: O=C1C(Cl)=C(Cl)C(=O)c2ccccc21 [Dichlon]
- MIC99.9 [11]: 3.2 mg/L
- MIC99.9 [12]: 16 mg/L
- MIC99.9 [13]: 32 mg/L
- MIC [1]: 55.1 µM (≈ 12.5 µg/mL)
- MIC99.9 [14]: 0.4 mg/L
- MIC [2]: 55.1 µM
- MIC99.9 [15]: 0.8 mg/L
- MIC99.9 [16]: 8 mg/L
- MIC [3]: 27.5 µM (≈ 6.25 µg/mL)

SMILES: NC1=C(Cl)C(=O)c2ccccc2C1=O
- MIC99.9 [11]: 1.6 mg/L
- MIC99.9 [17]: 0.2 mg/L
- MIC99.9 [18]: 0.007 mg/L
- MIC99.9 [19]: 0.8 mg/L
- MIC99.9 [13]: 4 mg/L
- MIC99.9 [1]: 6.25 mg/L (≈ 30.1 µM)
- MIC99.9 [20]: 0.125 mg/L
- MIC [2]: 15.1 µM
- MIC99.9 [3]: 3.125 mg/L (≈ 15.1 µM)

SMILES: CN(C)c1ccc(C2C(Cl)C(=O)N2C2=C(Cl)C(=O)c3ccccc3C2=O)cc1 (stereo not given)
- MIC99.9 [4]: 4 mg/L
- MIC99.9 [21]: 1.6 mg/L
- MIC99.9 [5]: 3.2 mg/L
- MIC99.9 [6]: 1 mg/L
- MIC99.9 [7]: 1.6 mg/L
- MIC99.9 [1]: 6.25 mg/L (≈ 15.1 µM)
- MIC99.9 [10]: 16 mg/L
- MIC [2]: 30.1 µM
- MIC99.9 [3]: 6.25 mg/L (≈ 15.1 µM)

SMILES: COc1ccc(C2C(Cl)C(=O)N2C2=C(Cl)C(=O)c3ccccc3C2=O)cc1 (stereo not given)
- MIC99.9 [4]: 1 mg/L
- MIC99.9 [17]: 0.4 mg/L
- MIC99.9 [7]: 0.4 mg/L
- MIC [1]: 31.1 µM (≈ 12.5 µg/mL)
- MIC99.9 [20]: 0.125 mg/L
- MIC99.9 [10]: 16 mg/L
- MIC [2]: 15.5 µM
- MIC99.9 [22]: 1.6 mg/L
- MIC99.9 [3]: 6.25 mg/L (≈ 15.5 µM)

SMILES: CO[C@H]1/C=C/O[C@@]2(C)Oc3c(C)c(O)c4c(O)c(c(/C=N/N5CCN(C)CC5)c(O)c4c3C2=O)NC(=O)/C(C)=C\C=C\[C@H](C)[C@H](O)[C@@H](C)[C@@H](O)[C@@H](C)[C@H](OC(C)=O)[C@@H]1C [RIFAMPIN]
- MIC [1]: 156 µM (≈ 128 µg/mL)
- MIC [2]: 77.8 µM
- MIC [3]: 156 µM (≈ 128 µg/mL)

SMILES: O=C1C(Cl)=C(N2C(=O)C(Cl)C2c2ccccc2)C(=O)c2ccccc21 (stereo not given)
- MIC [2]: 6.25 mg/L

SMILES: O=C1C(Cl)=C(N2C(=O)C(Cl)C2c2ccc([N+](=O)[O-])cc2)C(=O)c2ccccc21 (stereo not given)
- MIC99.9 [4]: 0.25 mg/L
- MIC99.9 [11]: 1.6 mg/L
- MIC99.9 [6]: 2 mg/L
- MIC99.9 [7]: 0.025 mg/L
- MIC99.9 [13]: 2 mg/L
- MIC99.9 [9]: 0.4 mg/L
- MIC [1]: 30 µM (≈ 12.5 µg/mL)
- MIC [2]: 15 µM
- MIC99.9 [3]: 3.125 mg/L (≈ 7.49 µM)

Source: ChEMBL document CHEMBL5500384, “New synergistic benzoquinone scaffolds as inhibitors of mycobacterial cytochrome bc1 complex to treat multi-drug resistant tuberculosis” (Eur J Med Chem, 2024)
